Test results as given in patent US20080280911A1, “Cinnoline Compounds as Inhibitors of Phosphodiesterase Type IV (Pde4)” (Glaxo Group Limited, priority 2005, published 2008).

Target: T1, PDE4B (human recombinant) enzyme (Homo sapiens, UniProt Q07343)
T1 construct: made in house; host or cells: Saccharomyces cerevisiae strain GL62 (PDE-deficient yeast), as described in WO 94/20079
Test: Inhibition of PDE4B catalytic activity, IMAP fluorescence polarisation (FP) assay
Assay type: biochemical
Conditions: inhibition of catalytic activity at PDE4B (human recombinant); FP assay described above or similar
Excerpt: Human recombinant PDE4B, in particular the 2B splice variant thereof (HSPDE4B2B), is disclosed in WO 94/20079 and also in M. M. McLaughlin et al., “A low Km, rolipram-sensitive, cAMP-specific phosphodiesterase from human brain: cloning and expression of cDNA, biochemical characterisation of recombinant protein, and tissue distribution of mRNA”, J. Biol. Chem., 1993, 268, 6470-6476. For example, in Example 1 of WO 94/20079, human recombinant PDE4B is described as being expressed in the PDE-deficient yeast Saccharomyces cerevisiae strain GL62, e.g. after induction by addition of 150 uM CuSO4, and 100,000×g supernatant fractions of yeast cell lysates are described for use in the harvesting of PDE4B enzyme.
The ability of compounds to inhibit PDE catalytic activity was determined by IMAP Fluorescence Polarisation (FP) assay (Molecular Devices Ltd code: R8062) in 384-well format. […]
For the PDE3, PDE4B and PDE4D assays Fluorescein adenosine 3′,5′-cyclic phosphate (Molecular Devices Ltd code: R7091) was added to give ˜40 nM final concentration. […] The FP ratio of parallel to perpendicular light was measured using an Analyst™ plate reader (from Molecular Devices Ltd). […] Curves were analysed using ActivityBase and XLfit (ID Business Solutions Limited). Results were expressed as pIC50 values.

T1 sequence (Q07343 1-564 isoform Q07343-2): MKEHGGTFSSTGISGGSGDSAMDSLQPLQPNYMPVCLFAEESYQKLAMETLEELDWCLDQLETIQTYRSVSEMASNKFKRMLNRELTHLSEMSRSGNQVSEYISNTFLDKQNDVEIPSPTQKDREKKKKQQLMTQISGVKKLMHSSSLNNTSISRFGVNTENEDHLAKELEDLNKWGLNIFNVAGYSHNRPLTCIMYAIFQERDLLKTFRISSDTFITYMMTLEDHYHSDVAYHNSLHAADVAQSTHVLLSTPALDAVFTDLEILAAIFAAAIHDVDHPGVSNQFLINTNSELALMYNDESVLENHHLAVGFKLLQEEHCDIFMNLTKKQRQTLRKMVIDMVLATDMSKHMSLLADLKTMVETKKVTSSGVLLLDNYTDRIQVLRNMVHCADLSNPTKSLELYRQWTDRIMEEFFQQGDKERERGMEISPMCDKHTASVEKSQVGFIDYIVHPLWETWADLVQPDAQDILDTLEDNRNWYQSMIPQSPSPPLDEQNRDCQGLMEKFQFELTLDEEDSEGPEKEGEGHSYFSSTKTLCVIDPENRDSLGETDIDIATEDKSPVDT

IC50: ~0.1 nM
Structure (SMILES): Cc1cc(S(C)(=O)=O)cc2c(Nc3cccc(C#N)c3)c(C(N)=O)nnc12 [Example 1, 4-[(3-Cyanophenyl)amino]-8-methyl-6-(methylsulfonyl)-3-cinnolinecarboxamide]
